Data: US9109041B2, “Analog compounds of analgesic peptides derived from the venom of crotalus durissus terrificus snakes, their uses, compositions, methods of preparation and purification” (priority 2004, dated 2015)

System: allodynia induced by constriction of the sciatic nerve
Assay: allodynia induced by chronic constriction of the sciatic nerve (von Frey hairs)
Type: in vivo, rat
Details: for paw withdrawal threshold (allodynia), FM 96 h: day 14, 96 h after peptide; for paw withdrawal threshold (allodynia), IM: day 14 after surgery, before peptide; for paw withdrawal threshold (allodynia), BM: before surgery; for paw withdrawal threshold (allodynia), FM 24 h: day 14, 24 h after peptide; for paw withdrawal threshold (allodynia), FM 48 h: day 14, 48 h after peptide; for paw withdrawal threshold (allodynia), FM 72 h: day 14, 72 h after peptide
Method: For the induction of neuropathic pain, surgery was performed in the sciatic nerve, in accordance with the method described by Bennett, G. J and Xie, Y. K. (Pain, 33:87-107, 1988). The animals were anesthetized with halothane. The sciatic nerve was exposed in the middle region of the thigh, moving away the femoral biceps muscle. Close to the trifurcation of the sciatic nerve, 7 mm of distance from the trifurcation, 4 loose ligations were performed (chromed catgut 4-0) around it, distant from each other in approximately 1 mm. The bindings were performed along the nerve, up to 4-5 mm from the initial point. The incision was sutured in layers, using silk suture thread number 4-0.
Allodynia was evaluated for quantitative testing, in response to tactile stimulus applied to the paws of the rat, according to the method described by Chaplan el al. (1994), modified. In this test, the rats were placed, individually, in plastic cages, with meshed wire at the bottom, to allow access to the paws of these animals. Briefly, a logarithmic series of 10 calibrated Semmes-Weinstein monofilaments (von Frey hairs, Aesthesiometer Semmer-Weinstein, Stoelting Co., E.U.A) was applied to the right hind paw to determine the stimulus intensity threshold stiffness required to elicit a paw withdrawal response. Log stiffness of the hairs is determined by log 10 (mg×10) having the following values (the value in grams is between parenthesis): 3.61 (0.407 g); 3.84 (0.692 g); 4.08 (1.202 g); 4.17 (1.479 g); 4.31 (2.041 g); 4.56 (3.630 g); 4.74 (5.495 g); 4.93 (8.511 g); 5.07 (11.749 g) and 5.18 (15.136 g). It is important to point out that the filaments with weight greater than 15.136 g were not employed in the studies of allodynia.
The filaments were applied, one by one, perpendicularly, under the plantar area of both hind paws and maintained for a period of 8 seconds. The filament capable of eliciting the withdrawal of the paw, two consecutive times, was considered as the force in grams necessary to elicit the response (100% of response). In the absence of a response to the greater stimulus (15.135 g), this filament was considered as cut value.
The behavioral responses were used to calculate the 50% paw withdrawal threshold (absolute threshold), by fitting a gaussian integral psychometric function, using a maximum-likelihood fitting method. This fitting method allows parametric analyses.
The period of the application of the test and the treatments were the same as those used for determination of hyperalgesia (Table 12).
The results were analyzed by comparing the means of the basal and initial measurements or, when determined, by comparing the means obtained in the different experimental groups.
For this purpose, the animals were treated with CTOP, a specific μ receptor antagonist (20 μg/paw), nor-BNI, a specific κ receptor antagonist (50 μg/paw) or with ICI 174,864, a specific δ receptor antagonist (10 μg/paw). The antagonists were injected, by intraplantar route. The peptide was administered in the dose of 5 μg/kg, orally, immediately before the injection of the opioid antagonists.
The results were analyzed comparing the mean values of the basal and initial measurements, or of the initial and final measurements or, when determined, by comparing the mean values obtained in the different experimental groups (Tables 15 and 16).

Xaa-Phe-Ser-Pro-Glu-Asn-Cys-Gln-Gly-Glu-Ser-Gln-Pro-Cys [SEQ ID NO: 2]
paw withdrawal threshold (allodynia), FM 96 h (0.0016 μg/kg p.o.): 4.22 ± 0.00 log 10 (mg × 10) | paw withdrawal threshold (allodynia), IM (0.0016 μg/kg p.o.): 4.22 ± 0.00 log 10 (mg × 10) | paw withdrawal threshold (allodynia), BM (0.008 μg/kg p.o.): 4.99 ± 0.02 log 10 (mg × 10) | paw withdrawal threshold (allodynia), FM 1 h (0.008 μg/kg p.o., day 14, 1 h after peptide): 4.22 ± 0.00 log 10 (mg × 10) | paw withdrawal threshold (allodynia), FM 3 h (0.008 μg/kg p.o., day 14, 3 h after peptide): 4.22 ± 0.00 log 10 (mg × 10) | paw withdrawal threshold (allodynia), FM 24 h (0.008 μg/kg p.o.): 4.22 ± 0.00 log 10 (mg × 10) | paw withdrawal threshold (allodynia), FM 48 h (0.008 μg/kg p.o.): 4.22 ± 0.00 log 10 (mg × 10) | paw withdrawal threshold (allodynia), FM 72 h (0.008 μg/kg p.o.): 4.22 ± 0.00 log 10 (mg × 10) | paw withdrawal threshold (allodynia), FM 96 h (0.008 μg/kg p.o.): 4.22 ± 0.00 log 10 (mg × 10) | paw withdrawal threshold (allodynia), IM (0.008 μg/kg p.o.): 4.22 ± 0.00 log 10 (mg × 10) | paw withdrawal threshold (allodynia), BM (0.04 μg/kg p.o.): 4.97 ± 0.99 log 10 (mg × 10) | paw withdrawal threshold (allodynia), FM 1 h (0.04 μg/kg p.o., day 14, 1 h after peptide): 4.22 ± 0.00 log 10 (mg × 10) | paw withdrawal threshold (allodynia), FM 3 h (0.04 μg/kg p.o., day 14, 3 h after peptide): 4.22 ± 0.00 log 10 (mg × 10) | paw withdrawal threshold (allodynia), FM 24 h (0.04 μg/kg p.o.): 4.22 ± 0.00 log 10 (mg × 10) | paw withdrawal threshold (allodynia), FM 48 h (0.04 μg/kg p.o.): 4.26 ± 0.04 log 10 (mg × 10) | paw withdrawal threshold (allodynia), FM 72 h (0.04 μg/kg p.o.): 4.22 ± 0.00 log 10 (mg × 10) | paw withdrawal threshold (allodynia), FM 96 h (0.04 μg/kg p.o.): 4.22 ± 0.00 log 10 (mg × 10) | paw withdrawal threshold (allodynia), IM (0.04 μg/kg p.o.): 4.22 ± 0.00 log 10 (mg × 10) | paw withdrawal threshold (allodynia), BM (0.2 μg/kg p.o.): 5.03 ± 0.02 log 10 (mg × 10) | paw withdrawal threshold (allodynia), FM 1 h (0.2 μg/kg p.o., day 14, 1 h after peptide): 4.41 ± 0.00 log 10 (mg × 10) | paw withdrawal threshold (allodynia), FM 3 h (0.2 μg/kg p.o., day 14, 3 h after peptide): 4.41 ± 0.00 log 10 (mg × 10) | paw withdrawal threshold (allodynia), FM 24 h (0.2 μg/kg p.o.): 4.41 ± 0.00 log 10 (mg × 10) | paw withdrawal threshold (allodynia), FM 48 h (0.2 μg/kg p.o.): 4.41 ± 0.00 log 10 (mg × 10) | paw withdrawal threshold (allodynia), FM 72 h (0.2 μg/kg p.o.): 4.41 ± 0.00 log 10 (mg × 10) | paw withdrawal threshold (allodynia), FM 96 h (0.2 μg/kg p.o.): 4.22 ± 0.00 log 10 (mg × 10) | paw withdrawal threshold (allodynia), IM (0.2 μg/kg p.o.): 4.22 ± 0.00 log 10 (mg × 10) | paw withdrawal threshold (allodynia), BM (1 μg/kg p.o.): 5.06 ± 0.02 log 10 (mg × 10) | paw withdrawal threshold (allodynia), FM 1 h (1 μg/kg p.o., day 14, 1 h after peptide): 4.62 ± 0.00 log 10 (mg × 10) | paw withdrawal threshold (allodynia), FM 3 h (1 μg/kg p.o., day 14, 3 h after peptide): 4.62 ± 0.00 log 10 (mg × 10) | paw withdrawal threshold (allodynia), FM 24 h (1 μg/kg p.o.): 4.62 ± 0.00 log 10 (mg × 10) | paw withdrawal threshold (allodynia), FM 48 h (1 μg/kg p.o.): 4.62 ± 0.00 log 10 (mg × 10) | paw withdrawal threshold (allodynia), FM 72 h (1 μg/kg p.o.): 4.62 ± 0.00 log 10 (mg × 10) | paw withdrawal threshold (allodynia), FM 96 h (1 μg/kg p.o.): 4.22 ± 0.00 log 10 (mg × 10) | paw withdrawal threshold (allodynia), IM (1 μg/kg p.o.): 4.23 ± 0.01 log 10 (mg × 10) | paw withdrawal threshold (allodynia), FM 1 h (5 μg/kg p.o. + CTOP 20 μg/paw i.pl., 1 h after peptide): 5.00 ± 0.05 log 10 (mg × 10) | paw withdrawal threshold (allodynia), FM 3 h (5 μg/kg p.o. + CTOP 20 μg/paw i.pl., 3 h after peptide): 4.99 ± 0.02 log 10 (mg × 10)
